Results published in patent US20240269313A1, “CONJUGATES COMPRISING A PHOSPHORUS(V) MOIETY AND A DRUG” (Tubulis GmbH, priority 2022, published 2024).

How the values were obtained:
[1] = tested on: HER2+ cell lines (N87 and SKBR3); test: In vitro efficacy with hydroxy-containing drugs (aromatic and aliphatic alcohols); type: cell-based; conditions: unconjugated drug
From the text: The scope of the linker system of conjugates in accordance with embodiments of the invention has been evaluated with further phenol-(or aromatic alcohol-) containing drugs OTS-964, Ganetespib and Birabresib. OTS-964 is a potent TOPK inhibitor, Ganetespib is a potent […], and Birabresib is a potent bromodomain inhibitor. […] Potency of the free payloads (OTS-964, Ganetespib and Birabresib) in the respective cell lines is also shown.
The scope of the linker system described herein has been also evaluated with further aliphatic alcohol-containing drugs SNX-2112, Gemcitabine and Barasertib. SNX-2112 is a potent HSP90-inhibitor, Gemcitabine is a potent ribonucleotide reductase inhibitor, and Barasertib is a potent Aurora B kinase inhibitor. […] Potency of the free payloads (SNX-2112, Gemcitabine and Barasertib) in the respective cell lines is also shown.

[2] = tested on: Trop2-positive cell lines; test: In vitro cell viability (in vitro potency) of SN38 based ADCs; conditions: various target-positive cell lines
Procedure: Antibody-drug conjugates (ADCs) comprising the anti-Trop2 antibody Sacituzumab, a phosphorus(V) moiety according to embodiments of the present invention, and SN38 as drug were tested in in vitro potency assays against various Trop2-positive cell lines. The corresponding ADCs with the non-targeted antibody Trastuzumab were used as isotype control. For direct comparison, the approved and marketed ADC Trodelvy comprising Sacituzumab, a CL2A linker and SN38 as drug was also tested. The corresponding ADC with Trastuzumab was used as isotype control.
Linkers have been conjugated to Sacituzumab (anti-Trop2) and Trastuzumab (anti Her2, isotype in this setting) and tested on a panel of 4 different cell lines. All cell lines were Trop+ and Her2−. Trastuzumab conjugates serve as isotype control in this setting. […] Sacituzumab-CL2A-SN38 is Trodelvy and has been purchased for the experiment.

Compound | activity of free payload [1] | in vitro potency, non-cleavable control vs cleavable conjugate [2]
Cc1sc2c(c1C)C(c1ccc(Cl)cc1)=N[C@@H](CC(=O)Nc1ccc(O)cc1)c1nnc(C)n1-2 [Birabresib] | lower activities of the unconjugated drugs | 
CC(C)c1cc(-c2n[nH]c(=O)n2-c2ccc3c(ccn3C)c2)c(O)cc1O [Ganetespib] | highest activity as free payload | 
Sacituzumab conjugated to O—P5(PEG12)-amidopentyl-Phosphoramidate-N-(4-Methylbenzyl)-O—SN38 |  | not active in the in vitro cell viability assay
Cc1cc(O)c(-c2ccc(C(C)CN(C)C)cc2)c2c1[nH]c(=O)c1sccc12 (stereo not shown) [OTS-964] | lower activities of the unconjugated drugs | 
